In US20260199482A1, “BILE ACID-METRONIDAZOLE CONJUGATE AND USE THEREOF” (SOUTH CHINA UNIVERSITY OF TECHNOLOGY, priority 2022, published 2026):
Converted amounts (≈) assume the structure as drawn. Where two headings read alike, the source gives them in different places.

Key:
[1] = test system: Clostridioides difficile ATCC 43255; assay: MIC determination using broth microdilution method, anaerobic bacteria; assay type: cell-based; settings: for MIC: ATCC43255, Clostridioides difficile ATCC 43255, broth microdilution, anaerobic, 37° C., 48 h; for inhibitory effect on Clostridioides difficile (ATCC 43255), in words: comment on Table 1
Experimental: 0.10 g of sterile cycloserine and 3.20 mg of sterile cefoxitin (filtered by a filter membrane and sterilized) were added to every 200 mL, mixed well, and poured into a sterile petri dish for later use.
S3, culture of Clostridioides difficile strain: 1) the strain stored at −80° C. was resuscitated in an anaerobic glove box with a cycloserine-cefoxitin-fructose agar medium plate, and statically cultured at 37° C. in a constant-temperature incubator for 48 h; • 2) single colonies were picked, and statically cultured in the brain heart infusion broth medium overnight at 37° C. in the constant-temperature incubator; and • 3) the bacterial solution that was statically cultured overnight was transferred into the anaerobic glove box with the brain heart infusion broth medium at a ratio of 1:100, and cultured for 3-4 h until the OD600 was between 0.6 and 0.8; and during this process, 5 g/L of yeast extract solution was added to increase a strain concentration.
(§1) The culture process of the strain was operated in the anaerobic glove box. After the operation was completed, the strain was well sealed with an anaerobic bag or an anaerobic box, taken out and then cultured in the constant-temperature incubator.

[2] = test system: H. pylori Sydney strain SS1; assay: MIC determination using broth microdilution method, Helicobacter pylori; assay type: cell-based
Experimental: (§2) • 1) A frozen solution stored at −80° C. was taken out, and thawed at room temperature; 100 μL of bacterial solution was taken with a pipette, coated onto a Columbia blood agar plate (finished-product medium), put invertedly in a […] culture box, placed in a micro-aerobic gas production bag to achieve a micro-aerobic environment, and cultured at 37° C. for 2-3 days. • 2) A sterile inoculation ring was used to pick Helicobacter pylori single colonies (transparent water droplets) grown on the Colombian blood agar medium and inoculated in the above liquid medium; and cultured at 37° C. in a micro-aerobic environment for 3 days. • 3) A required concentration (absorbance) for the experiment was reached after culture, and the bacterial solution was taken for subsequent experiments.
(§3) The drug concentration at which bacteria ceased to grow or grew at the most significant reduction level was referred to as the MIC value.

[3] = test system: H. pylori NCTC 11637; assay: as above; assay type: cell-based; settings: for MIC: Helicobacter pylori, NCTC11637; for inhibitory activity against drug-resistant bacteria, in words: metronidazole-resistant H. pylori NCTC 11637, versus metronidazole
Experimental: as §2, §3

[4] = test system: H. pylori ATCC 26695; assay: as above; assay type: cell-based
Experimental: as §2, §3

[5] = test system: H. pylori ATCC 43504; assay: as above; assay type: cell-based; settings: for MIC: Helicobacter pylori, ATCC43504; for inhibitory activity against drug-resistant bacteria, in words: metronidazole-resistant H. pylori ATCC 43504, versus metronidazole
Experimental: as §2, §3

[6] = test system: Bacteroides fragilis ATCC 25285; assay: MIC determination using broth microdilution method, anaerobic bacteria; assay type: cell-based
Experimental: as §1

[7] = test system: Porphyromonas gingivalis ATCC 33277; assay: as above; assay type: cell-based
Experimental: S5, Culture of Porphyromonas gingivalis strain: • the strain stored at −80° C. was resuscitated in the anaerobic glove box with a Colombian blood agar plate, and statically cultured at 37° C. in the constant-temperature incubator for 5-7 days.
as §1

[8] = test system: Clostridioides difficile infection (spores, 027 Type); assay: Clostridioides difficile infection (CDI) mouse model; assay type: in vivo, C57BL/6 mice; settings: for number of surviving mice: 10 animals per group
Source text: • 1) Experimental animals: C57BL/6, 4-6 weeks old, female.
In order to evaluate the efficacy of the compounds of the present application on Clostridioides difficile infection, an animal model of Clostridioides difficile infection was established, as shown in FIG. 1. […] On Day 0, the mice were administrated with 10^5 CFU/mL of spores by gavage; and on Days 1 and 2, the mice were administrated with 10^6 CFU/mL of spores by gavage. Starting from Day 3, the mice were given 7 days of drug treatment, and all mice were euthanized at the end of the experiment, except for the death of mice during the treatment.
Two of the conjugates, SCUT1-2 and SCUT1-6, with the optional in-vitro inhibitory activities were selected. […] The therapeutic effect of the conjugate of the present application in the treatment of Clostridioides difficile infection was evaluated.

[9] = H. pylori Sydney strain SS1, read-out: MIC
[10] = H. pylori NCTC 11637(R), metronidazole-resistant strain, read-out: MIC
[11] = ATCC26695, H. pylori ATCC 26695(S), metronidazole-susceptible strain, read-out: MIC
[12] = H. pylori ATCC 43504(R), metronidazole-resistant strain, read-out: MIC
[13] = ATCC25285, Bacteroides fragilis ATCC 25285, broth microdilution, anaerobic, 37° C., 48 h, read-out: MIC
[14] = ATCC33277, Porphyromonas gingivalis ATCC 33277, broth microdilution, anaerobic, 37° C., 48 h, read-out: MIC
[15] = Day 3 (before the administration), 50 mg/kg groups

| SMILES | MIC [1] [µg/mL] | inhibitory effect on Clostridioides difficile (ATCC 43255), in words [1] | MIC [2, 9] [µg/mL] | MIC [3, 10] [µg/mL] | MIC [4, 11] [µg/mL] | MIC [5, 12] [µg/mL] | MIC [6, 13] [µg/mL] | MIC [7, 14] [µg/mL] | number of mice with diarrhea [8, 15] | number of surviving mice [8, 15] | number of mice with diarrhea ([8]; Day 4, 50 mg/kg) | number of surviving mice ([8]; Day 4, 50 mg/kg) | number of mice with diarrhea ([8]; Day 5, 50 mg/kg) | number of surviving mice ([8]; Day 5, 50 mg/kg) | number of mice with diarrhea ([8]; Day 6, 50 mg/kg) | number of surviving mice ([8]; Day 6, 50 mg/kg) | number of mice with diarrhea ([8]; Day 7, 50 mg/kg) | number of surviving mice ([8]; Day 7, 50 mg/kg) | number of mice with diarrhea ([8]; Day 8, 50 mg/kg) | number of surviving mice ([8]; Day 8, 50 mg/kg) | other results |
| --- | --- | --- | --- | --- | --- | --- | --- | --- | --- | --- | --- | --- | --- | --- | --- | --- | --- | --- | --- | --- | --- |
| Cc1ncc([N+](=O)[O-])n1CCOC(=O)CC[C@@H](C)[C@H]1CC[C@H]2[C@@H]3[C@H](O)C[C@@H]4C[C@H](O)CC[C@]4(C)[C@H]3CC[C@]12C [SCUT1-3] | 0.12 (≈ 0.22 µM) | particularly prominent | 8 (≈ 14.7 µM) | 8 (≈ 14.7 µM) | 4 (≈ 7.33 µM) | 4 (≈ 7.33 µM) | 4 (≈ 7.33 µM) | 0.5 (≈ 0.916 µM) | – | – | – | – | – | – | – | – | – | – | – | – | inhibitory activity against drug-resistant bacteria, in words [3]: significantly promoted; inhibitory activity against drug-resistant bacteria, in words [5]: significantly promoted |
| Cc1ncc([N+](=O)[O-])n1CCOC(=O)CC[C@@H](C)[C@H]1CC[C@H]2[C@@H]3[C@H](O)[C@H](O)[C@@H]4C[C@H](O)CC[C@]4(C)[C@H]3CC[C@]12C [SCUT1-6] | 0.06 (≈ 0.107 µM) | particularly prominent | 16 (≈ 28.5 µM) | 8 (≈ 14.2 µM) | 4 (≈ 7.12 µM) | 8 (≈ 14.2 µM) | 2 (≈ 3.56 µM) | 0.25 (≈ 0.445 µM) | 8 number of mice | 10 number of mice | 10 (10) number of mice | 10 (10) number of mice | 8 number of mice | 10 number of mice | 7 number of mice | 10 number of mice | 5 number of mice | 10 number of mice | 6 number of mice | 10 number of mice | number of mice with diarrhea ([8]; Day 9, 50 mg/kg): 5 number of mice; number of surviving mice ([8]; Day 9, 50 mg/kg): 10 number of mice; changes in mouse body weights ([8]; during drug treatment from Day 3, 50 mg/kg): continued to decrease until the third day of drug treatment (Day 5); promotion of inhibitory activity against Clostridioides difficile relative to metronidazole ([1]; at the same dosage, versus metronidazole): more than 50 times |
| C[C@H](CCC(=O)O)[C@H]1CC[C@H]2[C@@H]3[C@H](O)C[C@@H]4C[C@H](O)CC[C@]4(C)[C@H]3CC[C@]12C [CDCA, chenodeoxycholic acid, reference compound] | 8 (≈ 20.4 µM) | – | – | – | – | – | > 32 | > 32 | – | – | – | – | – | – | – | – | – | – | – | – | – |
| Cc1ncc([N+](=O)[O-])n1CCOC(=O)CC[C@@H](C)[C@H]1CC[C@H]2[C@@H]3[C@@H](O)C[C@@H]4C[C@H](O)CC[C@]4(C)[C@H]3CC[C@]12C [SCUT1-2] | 0.12 (≈ 0.22 µM) | particularly prominent | 8 (≈ 14.7 µM) | 16 (≈ 29.3 µM) | 4 (≈ 7.33 µM) | 8 (≈ 14.7 µM) | 1 (≈ 1.83 µM) | 0.25 (≈ 0.458 µM) | 10 (10) number of mice | 10 (10) number of mice | 7 number of mice | 10 number of mice | 4 number of mice | 10 number of mice | 2 number of mice | 10 number of mice | 1 number of mice | 10 number of mice | 1 number of mice | 10 number of mice | death of mice during the treatment ([8]; 50 mg/kg, 7 days of drug treatment): no mice died; therapeutic effect, in words ([8]; 50 mg/kg, compared with Metronidazole, UDCA and MIX groups): a good therapeutic effect; number of mice with diarrhea ([8]; Day 9, 50 mg/kg): 1 number of mice; number of surviving mice ([8]; Day 9, 50 mg/kg): 10 number of mice; diarrhea rate ([8]; at the endpoint of treatment, 50 mg/kg, Model group 100%): 10% |
| Cc1ncc([N+](=O)[O-])n1CCOC(=O)CC[C@@H](C)[C@H]1CC[C@H]2[C@@H]3C[C@H](O)[C@@H]4C[C@H](O)CC[C@]4(C)[C@H]3CC[C@]12C [SCUT1-5] | 0.25 (≈ 0.458 µM) | – | 16 (≈ 29.3 µM) | 32 (≈ 58.6 µM) | 8 (≈ 14.7 µM) | 4 (≈ 7.33 µM) | 2 (≈ 3.66 µM) | 2 (≈ 3.66 µM) | – | – | – | – | – | – | – | – | – | – | – | – | – |
| C[C@H](CCC(=O)O)[C@H]1CC[C@H]2[C@@H]3[C@H](O)[C@H](O)[C@@H]4C[C@H](O)CC[C@]4(C)[C@H]3CC[C@]12C [HCA, hyocholic acid, reference compound] | 32 (≈ 78.3 µM) | – | – | – | – | – | > 32 | > 32 | – | – | – | – | – | – | – | – | – | – | – | – | – |
| C[C@H](CCC(=O)O)[C@H]1CC[C@H]2[C@@H]3[C@@H](O)C[C@@H]4C[C@H](O)CC[C@]4(C)[C@H]3CC[C@]12C [UDCA, ursodeoxycholic acid, reference compound] | 16 (≈ 40.8 µM) | – | > 32 | > 128 | > 32 | > 128 | > 32 | > 32 | 9 number of mice | 10 number of mice | 9 number of mice | 10 number of mice | 7 number of mice | 10 number of mice | 6 number of mice | 10 number of mice | 4 number of mice | 10 number of mice | 5 number of mice | 10 number of mice | number of mice with diarrhea ([8]; Day 9, 50 mg/kg): 5 number of mice; number of surviving mice ([8]; Day 9, 50 mg/kg): 10 number of mice |
| Cc1ncc([N+](=O)[O-])n1CCOC(=O)CC[C@@H](C)[C@H]1CC[C@H]2[C@@H]3C(=O)C[C@@H]4C[C@H](O)CC[C@]4(C)[C@H]3C[C@H](O)[C@]12C [SCUT1-8] | 1 (≈ 1.79 µM) | – | 8 (≈ 14.3 µM) | 64 (≈ 114 µM) | 8 (≈ 14.3 µM) | 16 (≈ 28.6 µM) | 1 (≈ 1.79 µM) | 1 (≈ 1.79 µM) | – | – | – | – | – | – | – | – | – | – | – | – | – |
| Cc1ncc([N+](=O)[O-])n1CCOC(=O)CC[C@@H](C)[C@H]1CC[C@H]2[C@@H]3[C@H](O)C[C@H]4C[C@H](O)CC[C@]4(C)[C@H]3CC[C@]12C [SCUT1-4] | 2 (≈ 3.66 µM) | – | 4 (≈ 7.33 µM) | 4 (≈ 7.33 µM) | 4 (≈ 7.33 µM) | 4 (≈ 7.33 µM) | 2 (≈ 3.66 µM) | 0.5 (≈ 0.916 µM) | – | – | – | – | – | – | – | – | – | – | – | – | inhibitory activity against drug-resistant bacteria, in words [3]: significantly promoted; inhibitory activity against drug-resistant bacteria, in words [5]: significantly promoted |
| Cc1ncc([N+](=O)[O-])n1CCOC(=O)CC[C@@H](C)[C@H]1CC[C@H]2[C@@H]3CC[C@@H]4C[C@H](O)CC[C@]4(C)[C@H]3CC[C@]12C [SCUT1-1] | 0.5 (≈ 0.944 µM) | – | – | – | – | – | – | – | – | – | – | – | – | – | – | – | – | – | – | – | MIC [2]: 8 µg/mL (≈ 15.1 µM); MIC [3]: 16 µg/mL (≈ 30.2 µM); MIC ([4]; ATCC26695): 8 µg/mL (≈ 15.1 µM); MIC [5]: > 128 µg/mL; MIC ([6]; Bacteroides fragilis, ATCC25285, 48 h): 1 µg/mL (≈ 1.89 µM); MIC ([7]; Porphyromonas gingivalis, ATCC33277, 48 h): 2 µg/mL (≈ 3.78 µM) |
